Results as given in PubChem BioAssay AID256 (DTP/NCI, 2004).
“And” between values parts separate entries of the source, which are not always exact repeats. Equal values may be shown once. Toxic doses and inconclusive results are not listed. Non-standard residues stand in square brackets, D forms with d. Residues, ends and D or L forms follow the SMILES beside them. ξ: configuration not given here. *: point of attachment. ONp = O=[N+]([O-])c1ccc(O*)cc1; ξS = NC(CO)C(=O)O

Test system: CD2F1 mice, L1210 leukemia ip, survival T/C
Test: NCI In Vivo Anticancer Drug Screen. Data for tumor model L1210 Leukemia (intraperitoneal) in CD2F1 (CDF1) mice
Details: endpoint: mean survival time, higher = longer survival
Summary of the method: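 Implant tumor; dose compound or vehicle; measure endpoint in both groups; report treated divided by control.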

[1] = dose: 50.0 mg/kg/injection, schedule: Q01DX009 (ip), vehicle: saline with Tween-80
[2] = dose: 100.0 mg/kg/injection, schedule: Q01DX009 (ip), vehicle: saline with Tween-80
[3] = dose: 100.0 mg/kg/injection, schedule: Q04DX003 (ip), vehicle: saline with Tween-80
[4] = dose: 200.0 mg/kg/injection, schedule: Q01DX009 (ip), vehicle: saline with Tween-80
[5] = dose: 200.0 mg/kg/injection, schedule: Q04DX003 (ip), vehicle: saline with Tween-80
[6] = dose: 400.0 mg/kg/injection, schedule: Q01DX009 (ip), vehicle: saline with Tween-80
[7] = dose: 400.0 mg/kg/injection, schedule: Q04DX003 (ip), vehicle: saline with Tween-80

CCCCCCCCCCCCCCCC(=O)N1CCC(N2CCCCC2)CC1
T/C [1]: 95 % of control | T/C [2]: 97 % of control | T/C [3]: 92 % of control | T/C [4]: 92 % of control | T/C [5]: 88 % of control

O=C(CCl)NCCCNC(=O)CCl
T/C [3]: 105 % of control

O=C(O)C(C(=O)O)C1C=CCC1 (centres undefined)
T/C (dose: 50.0 mg/kg/injection, schedule: Q04DX002 (ip), vehicle: saline with Tween-80): 98 % of control | T/C (dose: 100.0 mg/kg/injection, schedule: Q04DX002 (ip), vehicle: saline with Tween-80): 102 % of control | T/C (dose: 200.0 mg/kg/injection, schedule: Q04DX002 (ip), vehicle: saline with Tween-80): 87 % of control | T/C (dose: 400.0 mg/kg/injection, schedule: Q04DX002 (ip), vehicle: saline with Tween-80): 87 % of control

ClCCCCC(Cl)(Cl)Cl
T/C (dose: 100.0 mg/kg/injection, schedule: Q01DX001 (ip), vehicle: Klucel (hydroxypropylcellulose) (HPC)): 101 % of control | T/C (dose: 200.0 mg/kg/injection, schedule: Q01DX001 (ip), vehicle: Klucel (hydroxypropylcellulose) (HPC)): 98 % of control | T/C (dose: 400.0 mg/kg/injection, schedule: Q01DX001 (ip), vehicle: Klucel (hydroxypropylcellulose) (HPC)): 93 % of control

O=C1CCn2c3ccccc3c3cccc1c32
T/C [2]: 101 % of control | T/C [4]: 101 % of control | T/C [6]: 96 % of control

CC[n+]1c(-c2ccccc2)c2cc(N)ccc2c2ccc(N)cc21
T/C (dose: 1.0 mg/kg/injection, schedule: Q01DX009 (ip), vehicle: water): 106 % of control | T/C (dose: 2.0 mg/kg/injection, schedule: Q01DX009 (ip), vehicle: water): 112 % of control | T/C (dose: 2.5 mg/kg/injection, schedule: Q01DX005 (ip), vehicle: water): 101 % of control | T/C (dose: 4.0 mg/kg/injection, schedule: Q01DX009 (ip), vehicle: water): 116 % of control | T/C (dose: 5.0 mg/kg/injection, schedule: Q01DX005 (ip), vehicle: water): 105 % of control | T/C (dose: 8.0 mg/kg/injection, schedule: Q01DX009 (ip), vehicle: water): 122 % of control | T/C (dose: 10.0 mg/kg/injection, schedule: Q01DX005 (ip), vehicle: water): 114 % of control | T/C (dose: 16.0 mg/kg/injection, schedule: Q01DX009 (ip), vehicle: water): 104 % of control

c1ccc2nc3c(cc2c1)CCC3
T/C (dose: 100.0 mg/kg/injection, schedule: Q04DX003 (ip), vehicle: saline + alcohol): 95 % of control | T/C (dose: 200.0 mg/kg/injection, schedule: Q04DX003 (ip), vehicle: saline + alcohol): 95 % of control

COc1ccc(-c2cc(C(=O)N/N=C/c3ccc([N+](=O)[O-])cc3)c3ccc(C)cc3n2)cc1OC
T/C [2]: 93 % of control | T/C [4]: 106 % of control | T/C [6]: 108 % of control

OCC1c2ccc(Cl)cc2Nc2ccc(Cl)cc21 (centres undefined)
T/C [3]: 93 % of control | T/C [5]: 89 % of control | T/C [7]: 91 % of control

C[S+](C)(=O)/C=C(\[O-])Nc1ccc(Cl)c(Cl)c1
T/C [3]: 103 % of control | T/C [5]: 90 % of control | T/C [7]: 91 % of control

Fc1c(F)c(F)c(Nc2c(F)c(F)c3c(F)c(F)c(F)c(F)c3c2F)c(F)c1F
T/C (dose: 100.0 mg/kg/injection, schedule: Q01DX001 (ip), vehicle: saline with Tween-80): 98 % of control | T/C (dose: 200.0 mg/kg/injection, schedule: Q01DX001 (ip), vehicle: saline with Tween-80): 96 % of control | T/C (dose: 400.0 mg/kg/injection, schedule: Q01DX001 (ip), vehicle: saline with Tween-80): 98 % of control

Cc1ccccc1CC(C)c1ccccc1 (centres undefined)
T/C [1]: 101 % of control | T/C [2]: 101 % of control | T/C [3]: 90 % of control | T/C [4]: 90 % of control | T/C [5]: 88 % of control

COC(=O)C1OC(OC(C)=O)C(OC(C)=O)C(OC(C)=O)C1OC(C)=O (centres undefined)
T/C (dose: 75.0 mg/kg/injection, schedule: Q04DX003 (ip), vehicle: saline with Tween-80): 98 % of control | T/C (dose: 150.0 mg/kg/injection, schedule: Q04DX003 (ip), vehicle: saline with Tween-80): 98 % of control | T/C (dose: 300.0 mg/kg/injection, schedule: Q04DX003 (ip), vehicle: saline with Tween-80): 92 % of control

Cc1ccc(N2OCCN(C(=O)c3ccc([N+](=O)[O-])cc3)C2c2ccccc2)cc1 (centres undefined)
T/C [3]: 98 % of control | T/C [5]: 97 % of control | T/C [7]: 98 % of control

NC(CO)C(=O)NCC(=O)Oc1ccc([N+](=O)[O-])cc1 (centres undefined) (H-[ξS]-Gly-ONp)
T/C (dose: 75.0 mg/kg/injection, schedule: Q01DX001 (ip), vehicle: saline): 100 % of control | T/C (dose: 150.0 mg/kg/injection, schedule: Q01DX001 (ip), vehicle: saline): 102 % of control | T/C (dose: 300.0 mg/kg/injection, schedule: Q01DX001 (ip), vehicle: saline): 96 % of control

CCOC(=O)C(CC(C)C)NC(=O)C(Cc1ccc(N(CCCl)CCCl)cc1)NC(C)=O (centres undefined)
T/C (dose: 0.5 mg/kg/injection, schedule: Q01DX009 (ip), vehicle: saline): 95 % of control | T/C (dose: 1.0 mg/kg/injection, schedule: Q01DX009 (ip), vehicle: saline): 92 % of control | T/C (dose: 1.0 mg/kg/injection, schedule: Q04DX003 (ip), vehicle: saline with Tween-80): 100 % of control | T/C (dose: 2.0 mg/kg/injection, schedule: Q01DX001 (ip), vehicle: saline with Tween-80): 102 % of control [middle of 4 runs] | T/C (dose: 2.0 mg/kg/injection, schedule: Q01DX009 (ip), vehicle: Klucel (hydroxypropylcellulose) (HPC)): 92 % of control and 95 % of control | T/C (dose: 2.0 mg/kg/injection, schedule: Q01DX009 (ip), vehicle: saline): 94 % of control | T/C (dose: 2.0 mg/kg/injection, schedule: Q04DX003 (ip), vehicle: saline with Tween-80): 96 % of control and 97 % of control and 105 % of control | T/C (dose: 4.0 mg/kg/injection, schedule: Q01DX001 (ip), vehicle: saline with Tween-80): 102 % of control [middle of 4 runs] | T/C (dose: 4.0 mg/kg/injection, schedule: Q01DX009 (ip), vehicle: Klucel (hydroxypropylcellulose) (HPC)): 94 % of control and 95 % of control | T/C (dose: 4.0 mg/kg/injection, schedule: Q01DX009 (ip), vehicle: saline): 101 % of control | T/C (dose: 4.0 mg/kg/injection, schedule: Q04DX003 (ip), vehicle: saline with Tween-80): 105 % of control [middle of 4 runs] | T/C (dose: 8.0 mg/kg/injection, schedule: Q01DX001 (ip), vehicle: saline with Tween-80): 100 % of control and 98 % of control and 102 % of control | T/C (dose: 8.0 mg/kg/injection, schedule: Q01DX009 (ip), vehicle: Klucel (hydroxypropylcellulose) (HPC)): 94 % of control and 105 % of control | T/C (dose: 8.0 mg/kg/injection, schedule: Q01DX009 (ip), vehicle: saline): 110 % of control and 95 % of control and 103 % of control | T/C (dose: 8.0 mg/kg/injection, schedule: Q04DX003 (ip), vehicle: saline with Tween-80): 105 % of control [middle of 5 runs] | T/C (dose: 16.0 mg/kg/injection, schedule: Q01DX001 (ip), vehicle: saline with Tween-80): 102 % of control [middle of 4 runs] | T/C (dose: 16.0 mg/kg/injection, schedule: Q01DX009 (ip), vehicle: Klucel (hydroxypropylcellulose) (HPC)): 97 % of control and 111 % of control | T/C (dose: 16.0 mg/kg/injection, schedule: Q01DX009 (ip), vehicle: saline): 120 % of control and 100 % of control and 121 % of control | T/C (dose: 16.0 mg/kg/injection, schedule: Q04DX003 (ip), vehicle: saline): 110 % of control | T/C (dose: 32.0 mg/kg/injection, schedule: Q01DX001 (ip), vehicle: saline with Tween-80): 104 % of control [middle of 4 runs] | T/C (dose: 32.0 mg/kg/injection, schedule: Q01DX001 (ip), vehicle: saline): 105 % of control | T/C (dose: 32.0 mg/kg/injection, schedule: Q01DX009 (ip), vehicle: Klucel (hydroxypropylcellulose) (HPC)): 114 % of control | T/C (dose: 32.0 mg/kg/injection, schedule: Q01DX009 (ip), vehicle: saline): 101 % of control | T/C (dose: 32.0 mg/kg/injection, schedule: Q04DX003 (ip), vehicle: saline): 118 % of control | T/C (dose: 64.0 mg/kg/injection, schedule: Q01DX001 (ip), vehicle: saline with Tween-80): 114 % of control and 108 % of control and 98 % of control | T/C (dose: 64.0 mg/kg/injection, schedule: Q01DX001 (ip), vehicle: saline): 211 % of control | T/C (dose: 64.0 mg/kg/injection, schedule: Q01DX009 (ip), vehicle: Klucel (hydroxypropylcellulose) (HPC)): 119 % of control | T/C (dose: 64.0 mg/kg/injection, schedule: Q01DX009 (ip), vehicle: saline): 90 % of control | T/C (dose: 128.0 mg/kg/injection, schedule: Q01DX001 (ip), vehicle: saline with Tween-80): 118 % of control and 104 % of control and 106 % of control | T/C (dose: 128.0 mg/kg/injection, schedule: Q01DX009 (ip), vehicle: saline): 95 % of control and 105 % of control | T/C (dose: 128.0 mg/kg/injection, schedule: Q04DX003 (ip), vehicle: saline with Tween-80): 120 % of control and 92 % of control | T/C (dose: 128.0 mg/kg/injection, schedule: Q04DX003 (ip), vehicle: saline): 170 % of control | T/C (dose: 256.0 mg/kg/injection, schedule: Q01DX001 (ip), vehicle: saline): 152 % of control | T/C (dose: 256.0 mg/kg/injection, schedule: Q01DX009 (ip), vehicle: saline): 103 % of control | T/C (dose: 256.0 mg/kg/injection, schedule: Q04DX003 (ip), vehicle: saline with Tween-80): 94 % of control and 107 % of control | T/C (dose: 256.0 mg/kg/injection, schedule: Q04DX003 (ip), vehicle: saline): 120 % of control | T/C (dose: 512.0 mg/kg/injection, schedule: Q01DX009 (ip), vehicle: saline): 117 % of control
